Test results: PubChem BioAssay AID1259408 (Genetic Toxicology Data Bank (GENE-TOX), 2018)
Activity calls are given as the source filed them. How the calls were made is not given here.

Tested on: GENE-TOX genotoxicity assays, various organisms and cells
Assay: GENE-TOX mutagenicity studies
Conditions: for call: Assay Type: In vivo carcinogenicity studies
[1] = Species/Cell Type: Bacillus subtilis (H17 vs M45), Assay Type: Rec-assay, spot test, DNA effects (bacterial DNA repair), Assay Code: REW-, Evaluation Type: Evaluation A (Pre-1980)
[2] = Species/Cell Type: Drosophila melanogaster, Assay Type: Sex-linked recessive lethal gene mutation, Assay Code: SRL+, Evaluation Type: Evaluation A (Pre-1980)
[3] = Species/Cell Type: Escherichia coli polA (W3119 vs P3478), Assay Type: Rec-assay, DNA effects (bacterial DNA repair), Assay Code: RE1+, Evaluation Type: Evaluation A (Pre-1980)
[4] = Species/Cell Type: Nonhuman, Assay Code: CCG+, Evaluation Type: Evaluation A (Pre-1980)
[5] = Species/Cell Type: Saccharomyces cerevisiae, Assay Type: Mitotic recombination or gene conversion, Assay Code: YEC+, Evaluation Type: Evaluation A (Pre-1980)
[6] = Species/Cell Type: Saccharomyces cerevisiae, Assay Type: Mitotic recombination or gene conversion, Assay Code: YEH+, Evaluation Type: Evaluation A (Pre-1980)
[7] = Species/Cell Type: Salmonella typhimurium (one or more of the five standard strains: TA98, TA100, TA1535, TA1537, and TA1538), Assay Type: Histidine reverse gene mutation, Ames assay, Assay Code: SAL+, Evaluation Type: Evaluation A (Pre-1980)
[8] = Species/Cell Type: Salmonella typhimurium (one or more of the five standard strains: TA98, TA100, TA1535, TA1537, and TA1538), Assay Type: Histidine reverse gene mutation, Ames assay, Assay Code: SALT, Evaluation Type: Evaluation A (Pre-1980)
[9] = Species/Cell Type: Escherichia coli polA (W3119 vs P3478), Assay Type: Rec-assay, DNA effects (bacterial DNA repair), Assay Code: RE1T, Evaluation Type: Evaluation A (Pre-1980)
[10] = Species/Cell Type: Nonhuman, Assay Type: Sister-chromatid exchange (SCE) in vitro, Assay Code: SC2+D, Dose Response: With dose response, Evaluation Type: Evaluation B (Post-1980)
[11] = Species/Cell Type: Salmonella typhimurium (one or more of the five standard strains: TA98, TA100, TA1535, TA1537, and TA1538), Assay Type: Histidine reverse gene mutation, Ames assay, Assay Code: SAL+*, Activation: With metabolic activation, Evaluation Type: Evaluation A (Pre-1980)
[12] = Species/Cell Type: Fischer rat embryo (RLV/1706) cells, Assay Type: Cell transformation, viral enhanced, Assay Code: CTR-, Evaluation Type: Evaluation A (Pre-1980)
[13] = Species/Cell Type: Mammalian polychromatic erythrocytes, Assay Type: Micronucleus test, chromosome aberrations, Assay Code: MNT+, Evaluation Type: Evaluation B (Post-1980)
[14] = Species/Cell Type: Mouse, Sex: Male, Assay Type: Sperm morphology, Assay Code: SPI+, Evaluation Type: Evaluation A (Pre-1980)

Structure (SMILES): C/C(=C(\CCOC(=O)c1ccccc1)SC(=O)c1ccccc1)N(C=O)Cc1cnc(C)nc1N
- mutagenic call [1]: inactive; negative
- mutagenic call (Species/Cell Type: Escherichia coli WP2, Assay Type: Tryptophan reverse gene mutation, Assay Code: WP2-*, Activation: With metabolic activation, Evaluation Type: Evaluation A (Pre-1980)): inactive; negative
- mutagenic call (Species/Cell Type: Escherichia coli WP2 UVRA, Assay Type: Tryptophan reverse gene mutation, Assay Code: WPU-*, Activation: With metabolic activation, Evaluation Type: Evaluation A (Pre-1980)): inactive; negative

Structure (SMILES): Cn1ccc(CO)c1
- mutagenic call (Species/Cell Type: Human lymphocytes, Assay Type: Sister-chromatid exchange (SCE) in vitro, Assay Code: SCL+D, Dose Response: With dose response, Evaluation Type: Evaluation B (Post-1980)): active; positive
- mutagenic call (Species/Cell Type: Human, Assay Type: Sister-chromatid exchange (SCE) in vitro, Assay Code: SC1+D, Dose Response: With dose response, Evaluation Type: Evaluation B (Post-1980)): active; positive

Structure (SMILES): CCOC(=O)N(C)N=O
- mutagenic call (Species/Cell Type: Arabidopsis species, Assay Type: Gene mutation, Assay Code: ARM+D, Dose Response: With dose response, Evaluation Type: Evaluation A (Pre-1980)): active; positive
- mutagenic call (Species/Cell Type: Bacillus subtilis (H17 vs M45T), Assay Type: Rec-assay, spot test, DNA effects (bacterial DNA repair), Assay Code: REX+, Evaluation Type: Evaluation A (Pre-1980)): active; positive
- mutagenic call [2]: active; positive
- mutagenic call (Species/Cell Type: Drosophila melanogaster, Sex: Male, Assay Type: Heritable translocation test, chromosome aberrations, Assay Code: DHTT, Evaluation Type: Evaluation A (Pre-1980)): no conclusion
- mutagenic call [3]: active; positive
- mutagenic call (Species/Cell Type: Hordeum vulgare (barley), Assay Type: Chromosome aberrations, Assay Code: HOC+D, Dose Response: With dose response, Evaluation Type: Evaluation A (Pre-1980)): active; positive
- mutagenic call (Species/Cell Type: Hordeum vulgare (barley), Assay Type: Gene mutation, Assay Code: HOM+, Evaluation Type: Evaluation A (Pre-1980)): active; positive
- call [4]: active; positive
- mutagenic call (Species/Cell Type: Saccharomyces cerevisiae, Assay Type: Forward gene mutation, Assay Code: YEF+, Evaluation Type: Evaluation A (Pre-1980)): active; positive
- mutagenic call [5]: active; positive
- mutagenic call [6]: active; positive
- mutagenic call [7]: active; positive
- mutagenic call (Species/Cell Type: Schizosaccharomyces pombe, Assay Type: Reverse gene mutation, Assay Code: YEZ+, Evaluation Type: Evaluation A (Pre-1980)): active; positive

Structure (SMILES): O=NN(CCCO)CCCCO
- mutagenic call [8]: no conclusion

Structure (SMILES): CC1(C)N=C(N)N=C(N)N1OCCCOc1cc(Cl)c(Cl)cc1Cl
- mutagenic call [8]: no conclusion

Structure (SMILES): O=C(OOC(=O)c1ccccc1)c1ccccc1
- mutagenic call [9]: no conclusion

Structure (SMILES): COC(=O)[C@H](N)Cc1cnc[nH]1
- mutagenic call (Species/Cell Type: Drosophila melanogaster, Assay Type: Sex-linked recessive lethal gene mutation, Assay Code: SRL-, Evaluation Type: Evaluation A (Pre-1980)): inactive; negative

Structure (SMILES): C=CC(OC(C)=O)c1ccc(OC)c2ccccc12 (centres undefined)
- mutagenic call [7]: active; positive

Structure (SMILES): Cc1ccc2ccc3cc4ccccc4cc3c2c1
- mutagenic call [10]: active; positive
- mutagenic call [11]: active; positive

Structure (SMILES): CC(C)=O
- mutagenic call (Species/Cell Type: Arabidopsis species, Assay Type: Gene mutation, Assay Code: ARM-, Evaluation Type: Evaluation A (Pre-1980)): inactive; negative
- mutagenic call [12]: inactive; negative
- mutagenic call (Species/Cell Type: Human, Assay Type: Sister-chromatid exchange (SCE) in vitro, Assay Code: SC1T, Evaluation Type: Evaluation B (Post-1980)): no conclusion
- mutagenic call (Species/Cell Type: Mammalian polychromatic erythrocytes, Assay Type: Micronucleus test, chromosome aberrations, Assay Code: MNT-, Evaluation Type: Evaluation B (Post-1980)): inactive; negative
- mutagenic call (Species/Cell Type: Mouse embryo (AKR/ME) cells, Assay Type: Cell transformation, Assay Code: CTK-, Evaluation Type: Evaluation A (Pre-1980)): inactive; negative
- mutagenic call (Species/Cell Type: Nonhuman, Assay Type: Chromosome aberrations in vitro, Assay Code: CY&-, Evaluation Type: Evaluation A (Pre-1980)): inactive; negative
- mutagenic call (Species/Cell Type: Nonhuman, Assay Type: Sister-chromatid exchange (SCE) in vitro, Assay Code: SC2-, Evaluation Type: Evaluation A (Pre-1980)): inactive; negative
- mutagenic call (Species/Cell Type: Salmonella typhimurium (one or more of the five standard strains: TA98, TA100, TA1535, TA1537, and TA1538), Assay Type: Histidine reverse gene mutation, Ames assay, Assay Code: SAL-, Evaluation Type: Evaluation A (Pre-1980)): inactive; negative
- mutagenic call (Species/Cell Type: Syrian hamster embryo (SHE) cells, Assay Type: Cell transformation, clonal assay, Assay Code: CTC-, Evaluation Type: Evaluation A (Pre-1980)): inactive; negative

Structure (SMILES): COc1ccc(O)cc1
- mutagenic call (Species/Cell Type: Allium cepa, Assay Type: Chromosome aberrations, Assay Code: ALC+, Evaluation Type: Evaluation A (Pre-1980)): active; positive

Structure (SMILES): CCCCCc1cc(O)c2c(c1)OC(C)(C)c1ccc(C)cc1-2
- mutagenic call [12]: inactive; negative
- mutagenic call (Species/Cell Type: Human lymphocytes, Assay Type: Sister-chromatid exchange (SCE) in vivo, Assay Code: SCY+, Evaluation Type: Evaluation B (Post-1980)): active; positive
- mutagenic call [13]: active; positive
- mutagenic call [14]: active; positive

Structure (SMILES): C=CCCl
- mutagenic call [3]: active; positive
- mutagenic call [5]: active; positive
- mutagenic call [6]: active; positive

Structure (SMILES): CCc1cccc(C)c1N(C(=O)CCl)C(C)COC (centres undefined)
- mutagenic call (Species/Cell Type: Zea mays (corn), Assay Type: Gene mutation, Assay Code: ZEM-, Evaluation Type: Evaluation A (Pre-1980)): inactive; negative

Structure (SMILES): CCOCc1c(O)cc2c(c1O)C(=O)c1ccccc1C2=O
- mutagenic call [7]: active; positive

Structure (SMILES): Cc1c2ccccc2cc2ccc3ccccc3c12
- mutagenic call [10]: active; positive
- mutagenic call [11]: active; positive

Structure (SMILES): Cc1cc(C)cc(O)c1
- mutagenic call (Species/Cell Type: Allium cepa, Assay Type: Chromosome aberrations, Assay Code: ALCT, Evaluation Type: Evaluation A (Pre-1980)): no conclusion

Structure (SMILES): Cc1c2ccccc2c(C(=O)O)c2ccc3ccccc3c12
- mutagenic call (Species/Cell Type: Drosophila melanogaster, Assay Type: Sex-linked recessive lethal gene mutation, Assay Code: SRLT, Evaluation Type: Evaluation A (Pre-1980)): no conclusion

Structure (SMILES): Cc1ccnc2ccccc12
- mutagenic call [11]: active; positive

Structure (SMILES): CCCCI
- mutagenic call [9]: no conclusion

Structure (SMILES): COC(=O)NC(=S)Nc1ccccc1NC(=S)NC(=O)OC
- mutagenic call (Species/Cell Type: Aspergillus nidulans, Assay Type: Aneuploidy, chromosome aberrations, Assay Code: ASN+, Evaluation Type: Evaluation A (Pre-1980)): active; positive
- mutagenic call (Species/Cell Type: Mammalian germ cells, Sex: Male, Assay Type: Chromosome aberrations in vivo, Assay Code: CY9-, Evaluation Type: Evaluation A (Pre-1980)): inactive; negative

Structure (SMILES): O=P(OCC(Br)CBr)(OCC(Br)CBr)OCC(Br)CBr (centres undefined)
- mutagenic call (Species/Cell Type: Chinese hamster lung (V79) cells, Assay Type: Forward gene mutation, host-mediated assay, Assay Code: HMG+, Evaluation Type: Evaluation A (Pre-1980)): active; positive
- mutagenic call [2]: active; positive
- mutagenic call (Species/Cell Type: Drosophila melanogaster, Sex: Male, Assay Type: Heritable translocation test, chromosome aberrations, Assay Code: DHT+, Evaluation Type: Evaluation A (Pre-1980)): active; positive
- mutagenic call (Species/Cell Type: Human, Assay Type: Sister-chromatid exchange (SCE) in vitro, Assay Code: SC1+, Evaluation Type: Evaluation B (Post-1980)): active; positive
- mutagenic call [13]: active; positive
- mutagenic call [14]: active; positive
- call [4]: active; positive
- mutagenic call (Species/Cell Type: Nonhuman, Assay Type: Sister-chromatid exchange (SCE) in vitro, Assay Code: SC2+D, Dose Response: With dose response, Evaluation Type: Evaluation A (Pre-1980)): active; positive
- mutagenic call (Species/Cell Type: Nonhuman, Assay Type: Sister-chromatid exchange (SCE) in vivo, Assay Code: SC3+D, Dose Response: With dose response, Evaluation Type: Evaluation A (Pre-1980)): active; positive
- mutagenic call [7]: active; positive

Structure (SMILES): [N-]=[N+]=O
- mutagenic call (Species/Cell Type: Chinese hamster lung (V79) cells, Assay Type: Forward gene mutation at the HPRT or ouabain locus, Assay Code: V79+, Evaluation Type: Evaluation A (Pre-1980)): active; positive
- mutagenic call (Species/Cell Type: Mouse, Sex: Male, Assay Type: Sperm morphology, Assay Code: SPI-, Evaluation Type: Evaluation A (Pre-1980)): inactive; negative
- call (Species/Cell Type: Nonhuman, Assay Code: CCGT, Evaluation Type: Evaluation A (Pre-1980)): no conclusion
- mutagenic call (Species/Cell Type: Nonhuman, Assay Type: Sister-chromatid exchange (SCE) in vitro, Assay Code: SC2T, Evaluation Type: Evaluation B (Post-1980)): no conclusion
- mutagenic call (Species/Cell Type: Tradescantia species, Assay Type: Gene mutation, Assay Code: TRM+D, Dose Response: With dose response, Evaluation Type: Evaluation A (Pre-1980)): active; positive

Structure (SMILES): [Cl][Mo]([Cl])([Cl])([Cl])[Cl]
- mutagenic call [1]: inactive; negative

Structure (SMILES): Cc1c2cc[n+](C)cc2c(C)c2c1[nH]c1ccc(O)cc12
- mutagenic call (Species/Cell Type: Chinese hamster ovary (CHO) cells, Assay Type: Forward gene mutation at the HPRT locus, Assay Code: CHO+, Evaluation Type: Evaluation B (Post-1980)): active; positive
